Experimental data reported in paper PMC3151735 (ACS chemical biology, 2011).

Experiments:
Bcl-XL/Bak-BH3 [1] = biological target: T1, Bcl-XL/Bak-BH3 (Homo sapiens, UniProt Q07817); type: binding
Bcl-XL/Bak-BH3 [2] = biological target: T1, Bcl-XL/Bak-BH3; conditions: proof-of-concept study; cited from earlier work
[3] = GST-Bcl-XL, fluorescein-labeled Bak-BH3 peptide

T1 sequence (Q07817 whole entry): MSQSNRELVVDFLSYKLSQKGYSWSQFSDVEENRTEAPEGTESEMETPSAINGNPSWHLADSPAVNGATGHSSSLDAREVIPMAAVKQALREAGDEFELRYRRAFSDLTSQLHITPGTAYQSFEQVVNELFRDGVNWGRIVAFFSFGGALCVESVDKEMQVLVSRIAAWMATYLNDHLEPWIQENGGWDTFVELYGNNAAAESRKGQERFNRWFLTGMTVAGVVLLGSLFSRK

Row | Compound | IC50 (Bcl-XL/Bak-BH3 [1]; [3]) [µM] | Ki (Bcl-XL/Bak-BH3 [1]; [3]) [µM] | Percentage Inhibition (Bcl-XL/Bak-BH3 [1]; acylsulfonamide at 50 μM concentration, Bcl-XL/Bak-BH3 PPI disruption) [%] | IC50 inhibitory constants (Bcl-XL/Bak-BH3 [2])
1 | CC1(C)CCN(c2ccc(C(=O)NS(=O)(=O)c3ccc(NCCSc4ccccc4)c([N+](=O)[O-])c3)cc2)CC1 [SZ4TA2] | 0.106 ± 0.012 | 0.0375 ± 0.005 | 100 | nM range
2 | CC1(C)CCN(c2ccc(C(=O)NS(=O)(=O)c3ccc4ccc(S(=O)(=O)NCCSc5ccccc5)cc4c3)cc2)CC1 [SZ7TA2] |  | 11.5 ± 1.4 |  | 
3 | [N-]=[N+]=NS(=O)(=O)c1ccc(CN(CCSc2ccccc2)Cc2ccc(S(=O)(=O)NC(=O)c3ccccc3)cc2)cc1 [SZ9TA1] |  | 11.6 ± 1.6 |  | 
4 | COc1cc(OC)cc(C(=O)NS(=O)(=O)c2ccc(CN(CCSc3ccccc3)Cc3ccc(S(=O)(=O)N=[N+]=[N-])cc3)cc2)c1 [SZ9TA5] |  | 14.6 ± 1 |  | 
